# Test results as given in patent US9517241B2, “Amelioration of intestinal fibrosis and treatment of Crohn's disease” (THE REGENTS OF THE UNIVERSITY OF MICHIGAN, priority 2013, dated 2016).
# Legend:
# Assay type in all cases: cell-based, human
# [1] = test system: αSMA protein expression in Ccd-18co cells; assay: TGFβ-stimulated colonic myofibroblasts, αSMA protein expression (Western blot)
# Description: Colonic human myofibroblast Ccd-18co cells (CRL-1459 from ATCC) were cultured in alpha-MEM (Invitrogen, Carlsbad, Calif.) supplemented with 10% fetal bovine serum and sub-cultured weekly.
# Cells were plated at 30-40% confluence. To stimulate a fibrotic phenotype, Ccd-18co cells were serum-starved for 24 h prior to treatment with 1 ng/ml TGFβ or 1 ng/ml TGFβ and increasing doses of CARD-024 (10-1000 nM) for 48 h. Given ethanol was used to dilute CARD-024, ethanol was added to the untreated and TGFβ treated cells to a final concentration of 0.1%. […]
# (§1) Total protein was separated by SDS polyacrylamide gel electrophoresis (Bio-Rad,) with prestained protein markers loaded for molecular mass determination (Invitrogen, Carlsbad, Calif.), and transferred to PVDF membranes (Amersham Biosciences, Piscataway, N.J.). Membranes were blocked in 5% milk/TBST solution for 1 h at room temperature or overnight at 4° C. α-smooth muscle actin was detected by incubating the membrane overnight at 4° C. with mouse anti-human monoclonal antibody (Sigma, St. Louis, Mo.) at 1:5000 dilution in 5% milk/TBST.
# (§2) pFAK was detected using a rabbit polyclonal phosphospecific antibody against Tyr-397-FAK (Invitrogen) at 1:5000. […] Autoradiographs were scanned and quantitated using ImageJ analysis software (NIH, Bethesda, Md.).
# [2] = test system: fibrogenic genes (col1A1, Fn1, MLCK, ET-1) in Ccd-18co colonic myofibroblasts; assay: TGFβ-stimulated colonic myofibroblasts, fibrogenic gene expression; details: TGFβ1-stimulated Ccd-18co colonic myofibroblasts
# Description: (§3) Cells were plated at 30-40% confluence. To stimulate a fibrotic phenotype, Ccd-18co cells were serum-starved for 24 h prior to treatment with 1 ng/ml TGFβ or 1 ng/ml TGFβ and increasing doses of CARD-024 (10-1000 nM) for 48 h. Given ethanol was used to dilute CARD-024, ethanol was added to the untreated and TGFβ treated cells to a final concentration of 0.1%. For stiffness experiments, low-passage number Ccd-18co cells were seeded at 1×10^5 cells/ml on 6-well plates containing collagen-coated acrylamide gels corresponding to soft (4.3 kPa, 0.02% bisacrylamide) or stiff (28.1 kPa, 0.16%) matrices. Cells were allowed to attach to the matrix for 4 h and then the gels were transferred to new wells to avoid paracrine signaling from cells attached to the plastic well bottom. […]
# (§4) RNA from Ccd-18co cells was extracted using the RNeasy kit (Qiagen, Valencia, Calif.). cDNA was generated by reverse transcription of 1 μg of total RNA using the Superscript First Strand RT kit (Invitrogen, Carlsbad, Calif.). Quantitative real-time PCR (qPCR) was performed for MLCK, IL-1β, PTGS2, ET-1, and GAPDH with the TaqMan gene expression assays (ABI, Foster City, Calif.) on a Bio-Rad iCycler real-time PCR system. […] Gene expression was normalized to GAPDH as the endogenous control, and fold-changes (RQ) relative to untreated controls were calculated using the […] (Livak and Schmittgen, 2001).
# [3] = test system: Ccd-18co colonic myofibroblasts; assay: Matrix stiffness model: cell morphology, cell length and cell count (microscopy); details: for dendrite length: 1000 nM CARD-024, 24 h
# Description: (§5) Cells were plated at 30-40% confluence. To stimulate a fibrotic phenotype, Ccd-18co cells were serum-starved for 24 h prior to treatment with 1 ng/ml TGFβ or 1 ng/ml TGFβ and increasing doses of CARD-024 (10-1000 nM) for 48 h. Given ethanol was used to dilute CARD-024, ethanol was added to the untreated and TGFβ treated cells to a final concentration of 0.1%. For stiffness experiments, low-passage number Ccd-18co cells were seeded at 1×10^5 cells/ml on 6-well plates containing collagen-coated acrylamide gels corresponding to soft (4.3 kPa, 0.02% bisacrylamide) or stiff (28.1 kPa, 0.16%) matrices. Cells were allowed to attach to the matrix for 4 h and then the gels were transferred to new wells to avoid paracrine signaling from cells attached to the plastic well bottom. For the CARD-024 stiffness experiments, cells were plated as described above and serum-starved overnight prior to treatment with 1000 nM of CARD-024 diluted in 100% ethanol for 24 h. The 1000 nM CARD-024 dose was selected from the results of the TGFβ experiments. Since ethanol was used to dilute CARD-024, ethanol was added to untreated cells to a final concentration of 0.1%.Experiments were performed on early (4 to 7) passage cells. Cultures were routinely assayed for mycoplasma contamination.
# Collagen-coated polyacrylamide gels corresponding to physiological stiffnesses of 2.6 kPa to 28.1 kPa were generated using varying ratios of 40% acrylamide to 2% bisacrylamide (Bio-Rad, Hercules, Calif.) (Aplin and Hughes, 1981; Pelham and Wang, 1998). Specifically, an aqueous solution of 0.10% ammonium persulfate (Bio-Rad), 0.15% TEMED (Bio-Rad), 40% acrylamide solution was supplemented with 0.01%, 0.02%, 0.08%, or 0.16% bisacrylamide. The acrylamide gels were polymerized on a NaOH treated, amino-silanated (3-aminopropyltriethoxysilane), and glutaraldehyde treated 25 mm round glass coverslip. […] of each acrylamide/bisacrylamide solution was filter sterilized and pipetted unto a chloro-silanated glass surface treated with dichlorodimethylsilane (DCDMS) and a treated coverslip was inverted onto the acrylamide/biacrylamide solution. The acrylamide matrix was allowed to polymerize for 10 min between the two surfaces and transferred to a 6-well tissue culture plate containing sterile PBS. As determined by a series of stability experiments (data not shown), the acrylamide gels were stable for at least 1 month. […]
# Cells were photographed using a Leica (Leica Microsystems Inc., Buffalo Grove, Ill.) DMIRB inverted microscope and photographed with an Olympus DP-30 camera (Center Valley, Pa.). Cell length was determined from photomicrographs using ImageJ (NIH, Bethesda, Md.). Cell count was determined from a minimum of 3 representative photographs of a 100× magnification field. […]
# [4] = test system: Ccd-18co colonic myofibroblasts; assay: Matrix stiffness model: confocal immunofluorescence of focal adhesions (vinculin) and actin stress fibers (phalloidin); details: stiff substrate, 1000 nM CARD-024
# Description: as §5, with “Since ethanol was used to dilute CARD-024, ethanol was added to untreated cells to a final concentration of 0.1%.Experiments were performed on early (4 to 7) passage cells. Cultures were routinely assayed for mycoplasma contamination.” left out
# Expression of activated myofibroblast markers was analyzed by confocal immunofluorescence microscopy using the Olympus FluoView™ FV500/IX system (Olympus America, Center Valley, Pa.) at the University of Michigan Microscopy and Image Analysis Laboratory. […]
# [5] = test system: αSMA protein expression in colonic myofibroblasts; assay: Matrix stiffness model: αSMA protein expression (Western blot); details: high stiffness substrate, 1000 nM CARD-024
# Description: as §3, with “matrices.” for “matrices. Cells were allowed to attach to the matrix for 4 h and then the gels were transferred to new wells to avoid paracrine signaling from cells attached to the plastic well bottom.”
# as §1, §2
# [6] = test system: phosphorylation of focal adhesion kinase (FAK); assay: Matrix stiffness model: pFAK protein expression (Western blot); details: high stiffness matrix, 1000 nM CARD-024
# Description: as §3
# pFAK was detected using a rabbit polyclonal phosphospecific antibody against Tyr-397-FAK (Invitrogen) at 1:5000. […] After washing, the membranes were incubated with the appropriate secondary antibody (anti-mouse IgG+HRP or anti-rabbit IgG+HRP, Amersham, Piscataway, N.J.) for 1 h at room temperature and the signal was detected by the Pierce detection system (Pierce, Rockford, Ill.). Autoradiographs were scanned and quantitated using ImageJ analysis software (NIH, Bethesda, Md.).
# MLCK gene expression = assay: Matrix stiffness model: QRT-PCR of MLCK; details: high stiffness substrate, 1000 nM CARD-024
# Description: as §3, §4
# ET-1 gene expression = assay: Matrix stiffness model: QRT-PCR of ET-1; details: high stiffness conditions, 1000 nM CARD-024
# Description: as §3, §4
# [7] = test system: PTGS2 (which encodes the COX-2 enzyme); assay: Matrix stiffness model: QRT-PCR of PTGS2; details: low and high stiffness, 1000 nM CARD-024
# Description: as §3, §4
# IL-1β expression = assay: Matrix stiffness model: QRT-PCR of IL-1β; details: 1000 nM CARD-024, relative to untreated/low stiffness
# Description: as §3, §4
# colA1 gene expression = assay: Matrix stiffness model: expression of colA1; details: CARD-024 treatment
# Description: as §5
# (§6) Prior to seeding with colonic myofibroblasts, the acrylamide gels were collagen-coated. […]
# Fn-1 gene expression = assay: Matrix stiffness model: expression of Fn-1; details: CARD-024 treatment
# Description: as §5, §6
smiles,measurement,setting,value
"C=C1/C(=C\C=C2/CCC[C@]3(C)[C@@H]([C@H](C)CC[C@@H](CC)C(C)C)CC[C@@H]23)C[C@@H](O)C[C@@H]1O [CARD-024, (1S,3R)-(5Z,7E)-9,10-Secositosta-5,7,10(19)-triene-1,3-diol]","αSMA protein expression, dose response","[1]; Ccd-18co cells stimulated with TGFβ, 10-1000 nM CARD-024",attenuated αSMA protein expression in a dose-responsive manner
same,attenuation of αSMA protein expression,"[1]; Ccd-18co cells, 1 ng/ml TGFβ, 1000 nM CARD-024, 48 h, normalized to GAPDH, p=0.012",2 fold
same,fibrogenic gene expression,[2],minimal impact on fibrogenic gene expression
same,dendrite length,[3]; high stiffness (28.1 kPa) matrix,145 μm
same,cell morphology,"[3]; high stiffness substrate, 1000 nM CARD-024",repressed the effects of matrix stiffness on cell morphology
same,dendrite length,[3]; low stiffness (4.3 kPa) matrix,146 μm
same,reduction in cell number compared to untreated cells,"[3]; stiff matrix (28.1 kPa), 1000 nM CARD-024, not significant",50%
same,focal adhesions (vinculin staining),[4],inhibited focal adhesion maturation
same,αSMA expression,[5],repressed αSMA expression on the high stiffness substrate to levels indistinguishable from the low stiffness substrate
same,FAK phosphorylation,[6],inhibited FAK phosphorylation
same,MLCK expression,MLCK gene expression,significantly repressed MLCK expression to levels comparable to untreated cells on the low stiffness substrate
same,ET-1 expression,ET-1 gene expression,significantly repressed ET-1 expression in high stiffness conditions to levels indistinguishable from low stiffness conditions
same,PTGS2 expression,[7],induced PTGS2 at both low and high stiffness
same,induction of IL-1β expression,"IL-1β expression; high stiffness, p=0.002",1.8 fold
same,induction of IL-1β expression,IL-1β expression; low stiffness,4 fold
same,colA1 expression,colA1 gene expression,did not repress
same,Fn-1 expression,Fn-1 gene expression,did not repress
